Positions of bridges follow the written chain, without caps; N, C: chain ends. Non-standard residues stand in square brackets, D forms with d. Residues, ends and D or L forms follow the SMILES beside them. *: point of attachment. Ileψ(thiazoline)Cys = CC[C@H](C)[C@H](N)C1=N[C@H](C(=O)*)CS1; dOrn = NCCC[C@@H](N)C(=O)O
How the values were obtained:
Format in all cases: cell-based
[1] = tested on: Staphlococcus saprophyticus; assay: paper disc diffusion susceptibility (Kirby-Bauer) method; conditions: for change of zone of inhibition when lupulone was added: Experiment 1, 0.2 μg/ml β-resin versus antibiotic alone; for zone of inhibition, Experiment 1 Control / zone of inhibition, Experiment 2 Control: antibiotic disc alone; for zone of inhibition, Experiment 1 Control / zone of inhibition, Experiment 2 Control / zone of inhibition, Experiment 1 0.2 μg/ml β-resin / zone of inhibition, Experiment 2 0.2 μg/ml β-resin: 24 hours; for zone of inhibition, Experiment 1 0.2 μg/ml β-resin / zone of inhibition, Experiment 2 0.2 μg/ml β-resin: antibiotic disc with 0.2 μg/ml β-resin in the agar; for zone of inhibition, Xanthohumol Avg / zone of inhibition, Xanthohumol Expt #1 / zone of inhibition, Xanthohumol Expt #2 / zone of inhibition, β-acid Avg / zone of inhibition, β-acid Exp #1: S. saprophyticus
Source text: (§1) The first test method to be applied was the paper disc diffusion susceptibility method. In this method a filter paper disc impregnated with a chemical is placed on agar, and the chemical will diffuse from the disc into the agar. If an organism is placed on the agar, it will not grow in the area around the disc if it is susceptible to the chemical. This area of no growth around the disc is known as the zone of inhibition. This disc diffusion method for antibiotic susceptibility is known as the Kirby-Bauer method. In testing the effectiveness of various antibiotics, all factors, e.g., the agar utilized, the depth of the agar, the amount of organism used, and incubation conditions, are maintained constant for the various organisms and antibiotics being tested. […] The size of the zone of inhibition of the particular antimicrobial substance may also be influenced by the diffusion capability of that substance.
(§2) In performing the disc diffusion method tests, a bacterial suspension having an inoculum density of approximately 1×10^8 CFU/ml (colony forming units) was added to 10 ml trypticase soy agar at 46° C. It was mixed thoroughly by vortexing and then poured into a plastic Petri dish. After hardening of the agar, filter paper discs (φ7 mm.) made from Whatman filter paper No. 1 that had been impregnated by the manufacturer, Becton Dickinson, Inc., with the suitable antibiotic, were placed on the agar. In this series of tests the ability of each antibiotic per se to control the growth of the bacteria was measured.
(§3) Another series of agar containing Petri dishes was then prepared using the same bacteria and density thereof as had been prepared for the prior test series. However, here hop compounds were also present in the agar. The hop extract, either lupulone, humulone or xanthohumol, was dissolved in ethanol. While certain of the hop components are only slightly soluble in water, they are very soluble in ethanol. An ethanol control was prepared in the same way.
(§4) The size of the inhibition zones was measured to the nearest mm.
(§5) The concentration of β-acid and xanthohumol is set forth in μg/ml. The zone of inhibition was measured in centimeters. […]

B. subtilis = assay: paper disc diffusion susceptibility method
Source text: as §1, §2, §3, §4, §5

B. megaterium [2] = assay: paper disc diffusion susceptibility method
Source text: as §1, §2, §3, §4, §5

S. salivarius [3] = assay: paper disc diffusion susceptibility method
Source text: as §1, §2, §3, §4, §5

B. megaterium [4] = assay: minimum inhibitory concentration (MIC) method; conditions: 37° C. 24 hours
Experimental: (§6) Another method of determining antimicrobial activity is to assess the Minimum inhibitory concentration (MIC) of the composition under test. […] Thereafter, increased concentrations will have a limiting effect on growth, until the concentration is reached where no growth relative to the control is observed. That point of no growth is the minimum inhibitory concentration. […] A positive control with the bacterium alone was prepared as well as an ethanol control. The tubes were incubated at 37° C. for 24 hours and growth of the bacterium was determined by observing the change in turbidity.

S. salivarius [5] = assay: minimum inhibitory concentration (MIC) method; conditions: 37° C. 24 hours
Experimental: as §6

S. saprophyticus = assay: minimum inhibitory concentration (MIC) method; conditions: 37° C. 24 hours
Experimental: as §6, with “turbidity. […] Since the filing of the original application Ser. […] Pseudomonas fluorescens, Pseudomonas aeruginosa, Proteus vulgaris, Serratia marcescens, Proteus mirabilis and Enterobacter clocae.” for “turbidity.”

[6] = tobramycin 10 μg on disc, xanthohumol 0 μg/ml
[7] = tobramycin 10 μg on disc, xanthohumol 3 μg/ml
[8] = tobramycin 10 μg on disc, β-acid 0 μg/ml
[9] = tobramycin 10 μg on disc, β-acid 3 μg/ml
[10] = tobramycin 10 μg on disc, xanthohumol 10 μg/ml
[11] = tobramycin 10 μg on disc, β-acid 30 μg/ml
[12] = ciprofloxacin 5 μg on disc, xanthohumol 0 μg/ml
[13] = ciprofloxacin 5 μg on disc, xanthohumol 3 μg/ml
[14] = ciprofloxacin 5 μg on disc, xanthohumol 10 μg/ml

## O=C(N[C@H](CO)[C@H](O)c1ccc([N+](=O)[O-])cc1)C(Cl)Cl [CHLORAMPHENICOL, chloramphenicol]
[1]
  change of zone of inhibition when lupulone was added: decline
  zone of inhibition, Experiment 1 Control: 29 mm
  zone of inhibition, Experiment 2 Control: 25 mm
  zone of inhibition, Experiment 1 0.2 μg/ml β-resin: 27 mm
  zone of inhibition, Experiment 2 0.2 μg/ml β-resin: 25 mm

## NC[C@H]1O[C@H](O[C@H]2[C@H](O)[C@@H](O[C@H]3O[C@H](CO)[C@@H](O)[C@H](N)[C@H]3O)[C@H](N)C[C@@H]2N)[C@H](N)C[C@@H]1O [tobramycin]
[1]; [6]
  zone of inhibition, Xanthohumol Avg: 0.95 centimeters
  zone of inhibition, Xanthohumol Expt #1: 0.9 centimeters
  zone of inhibition, Xanthohumol Expt #2: 1.0 centimeters
[1]; [7]
  zone of inhibition, Xanthohumol Avg: 1.5 centimeters
  zone of inhibition, Xanthohumol Expt #1: 1.5 centimeters
  zone of inhibition, Xanthohumol Expt #2: 1.5 centimeters
[1]; [8]
  zone of inhibition, β-acid Avg: 0.9 centimeters
  zone of inhibition, β-acid Exp #1: 0.9 centimeters
[1]; [9]
  zone of inhibition, β-acid Avg: 1.6 centimeters
  zone of inhibition, β-acid Exp #1: 1.6 centimeters
B. subtilis; [6]
  zone of inhibition, Xanthohumol Avg: 1.0 centimeters
  zone of inhibition, Xanthohumol Expt #1: 1.1 centimeters
  zone of inhibition, Xanthohumol Expt #2: 0.9 centimeters
B. subtilis; [7]
  zone of inhibition, Xanthohumol Avg: 1.5 centimeters
  zone of inhibition, Xanthohumol Expt #1: 1.6 centimeters
  zone of inhibition, Xanthohumol Expt #2: 1.4 centimeters
B. subtilis; [8]
  zone of inhibition, β-acid Avg: 1.0 centimeters
  zone of inhibition, β-acid Exp #1: 1.1 centimeters
  zone of inhibition, β-acid Exp #2: 0.9 centimeters
B. subtilis; [9]
  zone of inhibition, β-acid Avg: 1.3 centimeters
  zone of inhibition, β-acid Exp #1: 1.4 centimeters
  zone of inhibition, β-acid Exp #2: 1.2 centimeters
B. megaterium [2]; [6]
  zone of inhibition, Xanthohumol Avg: 0.7 centimeters
  zone of inhibition, Xanthohumol Expt #1: 0.8 centimeters
  zone of inhibition, Xanthohumol Expt #2: 0.6 centimeters
B. megaterium [2]; [7]
  zone of inhibition, Xanthohumol Avg: 1.05 centimeters
  zone of inhibition, Xanthohumol Expt #1: 1.1 centimeters
  zone of inhibition, Xanthohumol Expt #2: 1.0 centimeters
B. megaterium [2]; [8]
  zone of inhibition, β-acid Avg: 0.7 centimeters
  zone of inhibition, β-acid Exp #1: 0.8 centimeters
  zone of inhibition, β-acid Exp #2: 0.6 centimeters
B. megaterium [2]; [9]
  zone of inhibition, β-acid Avg: 0.95 centimeters
  zone of inhibition, β-acid Exp #1: 1.1 centimeters
  zone of inhibition, β-acid Exp #2: 0.8 centimeters
S. salivarius [3]; [6]
  zone of inhibition, Xanthohumol Avg: 0.55 centimeters
  zone of inhibition, Xanthohumol Expt #1: 0.6 centimeters
  zone of inhibition, Xanthohumol Expt #2: 0.5 centimeters
S. salivarius [3]; [10]
  zone of inhibition, Xanthohumol Avg: 1.35 centimeters
  zone of inhibition, Xanthohumol Expt #1: 1.4 centimeters
  zone of inhibition, Xanthohumol Expt #2: 1.3 centimeters
S. salivarius [3]; [8]
  zone of inhibition, β-acid Avg: 0.55 centimeters
  zone of inhibition, β-acid Exp #1: 0.6 centimeters
  zone of inhibition, β-acid Exp #2: 0.5 centimeters
S. salivarius [3]; [11]
  zone of inhibition, β-acid Avg: 0.65 centimeters
  zone of inhibition, β-acid Exp #1: 0.7 centimeters
  zone of inhibition, β-acid Exp #2: 0.6 centimeters

## penicillin
[1]
  change of zone of inhibition when lupulone was added: decline
  zone of inhibition, Experiment 1 Control: 41 mm
  zone of inhibition, Experiment 2 Control: 37 mm
  zone of inhibition, Experiment 1 0.2 μg/ml β-resin: 39 mm
  zone of inhibition, Experiment 2 0.2 μg/ml β-resin: 35 mm

## O=C(O)c1cn(C2CC2)c2cc(N3CCNCC3)c(F)cc2c1=O [ciprofloxacin, 1-cyclopropyl-6-fluoro-1,4-dihyro-4-oxo-7-(1-piperaznyl)-3-quinolinecarboxylic acid]
[1]; [12]
  zone of inhibition, Xanthohumol Avg: 0.95 centimeters
  zone of inhibition, Xanthohumol Expt #1: 0.9 centimeters
  zone of inhibition, Xanthohumol Expt #2: 1.0 centimeters
[1]; [13]
  zone of inhibition, Xanthohumol Avg: 1.5 centimeters
  zone of inhibition, Xanthohumol Expt #1: 1.3 centimeters
  zone of inhibition, Xanthohumol Expt #2: 1.7 centimeters
B. subtilis; [12]
  zone of inhibition, Xanthohumol Avg: 1.0 centimeters
  zone of inhibition, Xanthohumol Expt #1: 1.1 centimeters
  zone of inhibition, Xanthohumol Expt #2: 0.9 centimeters
B. subtilis; [13]
  zone of inhibition, Xanthohumol Avg: 1.85 centimeters
  zone of inhibition, Xanthohumol Expt #1: 2.0 centimeters
  zone of inhibition, Xanthohumol Expt #2: 1.7 centimeters
B. megaterium [2]; [12]
  zone of inhibition, Xanthohumol Avg: 0.75 centimeters
  zone of inhibition, Xanthohumol Expt #1: 0.8 centimeters
  zone of inhibition, Xanthohumol Expt #2: 0.7 centimeters
B. megaterium [2]; [13]
  zone of inhibition, Xanthohumol Avg: 1.75 centimeters
  zone of inhibition, Xanthohumol Expt #1: 1.6 centimeters
  zone of inhibition, Xanthohumol Expt #2: 1.9 centimeters
S. salivarius [3]; [12]
  zone of inhibition, Xanthohumol Avg: 0.8 centimeters
  zone of inhibition, Xanthohumol Expt #1: 0.8 centimeters
  zone of inhibition, Xanthohumol Expt #2: 0.8 centimeters
S. salivarius [3]; [14]
  zone of inhibition, Xanthohumol Avg: 2.0 centimeters
  zone of inhibition, Xanthohumol Expt #1: 1.9 centimeters
  zone of inhibition, Xanthohumol Expt #2: 2.1 centimeters

## CC[C@H](C)[C@H](N)C1=N[C@H](C(=O)N[C@@H](CC(C)C)C(=O)N[C@H](CCC(=O)O)C(=O)N[C@H](C(=O)N[C@H]2CCCCNC(=O)[C@H](CC(N)=O)NC(=O)[C@@H](CC(=O)O)NC(=O)[C@H](Cc3cnc[nH]3)NC(=O)[C@@H](Cc3ccccc3)NC(=O)[C@H]([C@@H](C)CC)NC(=O)[C@@H](CCCN)NC2=O)[C@@H](C)CC)CS1 [BACITRACIN, bacitracin] ({Ileψ(thiazoline)Cys}-L[dE]IK[dOrn]I[dF]H[dD]N; lactam 4-C)
[1]
  change of zone of inhibition when lupulone was added: remained constant
  zone of inhibition, Experiment 1 Control: 0 mm
  zone of inhibition, Experiment 2 Control: 0 mm
  zone of inhibition, Experiment 1 0.2 μg/ml β-resin: 0 mm
  zone of inhibition, Experiment 2 0.2 μg/ml β-resin: 0 mm

## polymyxin B
[1]
  zone of inhibition, Experiment 1 Control: 0 mm
  zone of inhibition, Experiment 2 Control: 0 mm
  zone of inhibition, Experiment 1 0.2 μg/ml β-resin: 9 mm
  zone of inhibition, Experiment 2 0.2 μg/ml β-resin: 8 mm
[1]; listed as polymyxin B
  zone of inhibition, Experiment 1 Control: no inhibition zone whatsoever
  zone of inhibition, Experiment 2 Control: zero
B. megaterium [4]; exp 1
  MIC, agent alone: >100 µg/mL
B. megaterium [4]; exp 2
  MIC, agent alone: >100 µg/mL
S. salivarius [5]; exp 1
  MIC, agent alone: >100 µg/mL
S. salivarius [5]; exp 2
  MIC, agent alone: >100 µg/mL
S. saprophyticus; exp 1
  MIC, agent alone: >100 µg/mL
S. saprophyticus; exp 2
  MIC, agent alone: >100 µg/mL

## [H]/N=C(/N)N[C@H]1[C@H](O)[C@@H](O)[C@H](O[C@@H]2O[C@@H](C)[C@](O)(C=O)[C@H]2O[C@@H]2O[C@@H](CO)[C@H](O)[C@@H](O)[C@@H]2NC)[C@@H](N/C(N)=N\[H])[C@@H]1O [STREPTOMYCIN, streptomycin]
[1]
  change of zone of inhibition when lupulone was added: remained constant
  zone of inhibition, Experiment 1 Control: 15 mm
  zone of inhibition, Experiment 2 Control: 15 mm
  zone of inhibition, Experiment 1 0.2 μg/ml β-resin: 15 mm
  zone of inhibition, Experiment 2 0.2 μg/ml β-resin: 14 mm

## neomycin
[1]
  zone of inhibition, Experiment 1 Control: 23 mm
  zone of inhibition, Experiment 2 Control: 26 mm
  zone of inhibition, Experiment 1 0.2 μg/ml β-resin: 25 mm
  zone of inhibition, Experiment 2 0.2 μg/ml β-resin: 24 mm

## CC[C@H]1OC(=O)[C@H](C)[C@@H](O[C@H]2C[C@@](C)(OC)[C@@H](O)[C@H](C)O2)[C@H](C)[C@@H](O[C@@H]2O[C@H](C)C[C@H](N(C)C)[C@H]2O)[C@](C)(O)C[C@@H](C)C(=O)[C@H](C)[C@@H](O)[C@]1(C)O [ERYTHROMYCIN, erythromycin]
[1]
  change of zone of inhibition when lupulone was added: remained constant
  zone of inhibition, Experiment 1 Control: 23 mm
  zone of inhibition, Experiment 2 Control: 23 mm
  zone of inhibition, Experiment 1 0.2 μg/ml β-resin: 25 mm
  zone of inhibition, Experiment 2 0.2 μg/ml β-resin: 23 mm
